Assay results as given in publication PMC7527546 (Current Radiopharmaceuticals, 2020).
Where two headings read alike, the source gives them in different places.

Legend:
[1] = test system: athymic mice bearing human prostate C4-2 cancer xenografts; format: in vivo; conditions: for 224Ra %ID/g: 224Ra measured 2 h after i.v. injection of the named 224Ra-solution; for %ID/g of 212Pb without 212Pb ingrowth from 224Ra: 2 h after i.v. injection of the 224Ra-solution
[2] = in man; cited from earlier work
[3] = in mice; cited from earlier work

NC(=O)CN1CCN(CC(N)=O)CCN(CC(N)=O)C(Cc2ccc(NC(=S)NCC3CCC(C(=O)NC(Cc4ccc5ccccc5c4)C(=O)NCCCCC(NC(=O)NC(CCC(=O)O)C(=O)O)C(=O)O)CC3)cc2)CN(CC(N)=O)CC1 (centres unmarked) [NG001, p-SCN-Bn-TCMC-PSMA ligand]
lower kidney uptake compared with [212Pb]Pb-PSMA-617 ([1]; 2 h after injection): 3.5 fold

[Cl][212Pb][Cl] [[212Pb]PbCl2]
tumour-to-kidney ratio ([1]; 2 h after i.v. injection of the 224Ra-solutions): 0.04 | 224Ra %ID/g ([1]; Femur): 19.40±1.97 %ID/g | %ID/g of 212Pb without 212Pb ingrowth from 224Ra ([1]; Kidneys): 48.47±7.57 %ID/g | 224Ra %ID/g ([1]; Skull): 19.62±1.28 %ID/g | %ID/g of 212Pb without 212Pb ingrowth from 224Ra ([1]; Tumour (C4-2 xenograft)): 1.71±1.29 %ID/g

[Ra] [radium]
radium excreted by intestinal clearance [2]: more than 90% | renal clearance of radium [3]: about 70%
